Tests used:
Format in all cases: in vivo
[1] = test system: Apera spica-venti.; experiment: Test Example 4: herbicidal effect by application to foliage (diluvial soil, plastic box); details: for L: herbicidal effect on Apera spica-venti. / herbicidal effect, L (Apera spica-venti.): application to foliage; for L: herbicidal effect on Apera spica-venti.: application herbicide amount 320 g/ha
Outline: (§1)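 Greenhouse plants (25° C. to 30° C., 14 d, diluvial soil) receive a foliar spray of water-diluted emulsifiable formulation at defined g/ha. Grading after 3 weeks uses a six-step herbicidal-ratio scale, with 4 covering 70% to <90% and 1 covering 5% to <20%.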

[2] = test system: Echinochloa crus-galli var. crus-galli; experiment: as above; details: for H: herbicidal effect on Echinochloa crus-galli var. crus-galli / herbicidal effect, H (Echinochloa crus-galli var. crus-galli): application to foliage; for H: herbicidal effect on Echinochloa crus-galli var. crus-galli: application herbicide amount 320 g/ha
Outline: as §1

[3] = test system: Galium spurium; experiment: as above; details: application to foliage; for Q: herbicidal effect on Galium spurium: application herbicide amount 320 g/ha; for herbicidal effect, Q (Galium spurium): 320 g/ha
Outline: as §1

[4] = test system: Abutilon theophrasti; experiment: as above; details: for M: herbicidal effect on Abutilon theophrasti / herbicidal effect, M (Abutilon theophrasti): application to foliage; for M: herbicidal effect on Abutilon theophrasti: application herbicide amount 320 g/ha
Outline: as §1

[5] = test system: Chenopodium album; experiment: as above; details: for O: herbicidal effect on Chenopodium album / herbicidal effect, O (Chenopodium album): application to foliage; for O: herbicidal effect on Chenopodium album: application herbicide amount 320 g/ha
Outline: as §1

[6] = test system: Veronica persica; experiment: as above; details: application to foliage; for R: herbicidal effect on Veronica persica: application herbicide amount 320 g/ha; for herbicidal effect, R (Veronica persica): 320 g/ha
Outline: as §1

[7] = test system: Avena fatua; experiment: as above; details: for I: herbicidal effect on Avena fatua / herbicidal effect, I (Avena fatua): application to foliage; for I: herbicidal effect on Avena fatua: application herbicide amount 320 g/ha
Outline: as §1

[8] = test system: transplanted Oryza sativa; experiment: Test Example 1: effect on crop, application before weed generation in submerged conditions; details: Seventeenth Table; for a: transplanted Oryza sativa (effect on crop grade): Application herbicide amount 320 g/ha
Outline: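 Water-diluted emulsion formulation is applied onto flood water (4 cm deep) covering alluvial soil on the day weed seeds are sown, after transplanting 2.5 leaf stage rice. Rates are expressed per hectare. Injury or control is graded 0–5 three weeks later.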

[9] = test system: directly sowed Oryza sativa; experiment: Test Example 3: effect on crop by application to foliage (Wagner pot, water depth 0.1-0.5 cm); details: Nineteenth Table; application to foliage; application herbicide amount 320 g/ha
Outline: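 A small sprayer delivered the diluted emulsion uniformly to foliage at the chosen rate in g/ha, 14 days after sowing in Wagner pots held at 25–30 °C. Outcome: 0–5 herbicidal-ratio score read three weeks post-treatment.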

| Structure (SMILES) | L: herbicidal effect on Apera spica-venti. [1] | H: herbicidal effect on Echinochloa crus-galli var. crus-galli [2] | Q: herbicidal effect on Galium spurium [3] | M: herbicidal effect on Abutilon theophrasti [4] | O: herbicidal effect on Chenopodium album [5] | R: herbicidal effect on Veronica persica [6] | I: herbicidal effect on Avena fatua [7] | a: transplanted Oryza sativa (effect on crop grade) [8] | herbicidal effect, L (Apera spica-venti.) ([1]; 320 g/ha) | herbicidal effect, H (Echinochloa crus-galli var. crus-galli) ([2]; 320 g/ha) | herbicidal effect, Q (Galium spurium) [3] | herbicidal effect, M (Abutilon theophrasti) ([4]; 320 g/ha) | herbicidal effect, R (Veronica persica) [6] | herbicidal effect, I (Avena fatua) ([7]; 320 g/ha) | herbicidal effect, O (Chenopodium album) ([5]; 320 g/ha) | further results |
| --- | --- | --- | --- | --- | --- | --- | --- | --- | --- | --- | --- | --- | --- | --- | --- | --- |
| Cc1nnc(NC(=O)c2ccc(C(F)(F)F)n3c(SC4CCCC4)nnc23)o1 [1-154] | 0 (Herbicidal ratio of 5% or less (almost no effect)) | 3 (Herbicidal ratio of 40% or more and less than 70%) | 0 (Herbicidal ratio of 5% or less (almost no effect)) | 2 (Herbicidal ratio of 20% or more and less than 40%) | 5 (Herbicidal ratio of 90% or more (almost completely withered)) | 0 (Herbicidal ratio of 5% or less (almost no effect)) | 0 (Herbicidal ratio of 5% or less (almost no effect)) | 0 (Herbicidal ratio of 5% or less (almost no effect)) | – | – | – | – | – | – | – | – |
| O=C(Nc1nnco1)c1ccc(C(F)(F)F)n2c(SC3CCCC3)nnc12 [1-155] | 0 (Herbicidal ratio of 5% or less (almost no effect)) | 3 (Herbicidal ratio of 40% or more and less than 70%) | 0 (Herbicidal ratio of 5% or less (almost no effect)) | 3 (Herbicidal ratio of 40% or more and less than 70%) | 5 (Herbicidal ratio of 90% or more (almost completely withered)) | 2 (Herbicidal ratio of 20% or more and less than 40%) | 0 (Herbicidal ratio of 5% or less (almost no effect)) | 0 (Herbicidal ratio of 5% or less (almost no effect)) | – | – | – | – | – | – | – | – |
| Cc1nnc(NC(=O)c2ccc(C(F)(F)F)n3c(SCc4ccc(Cl)nc4)nnc23)o1 [1-156] | 2 (Herbicidal ratio of 20% or more and less than 40%) | 4 (Herbicidal ratio of 70% or more and less than 90%) | 1 (Herbicidal ratio of 5% or more and less than 20%) | 3 (Herbicidal ratio of 40% or more and less than 70%) | 5 (Herbicidal ratio of 90% or more (almost completely withered)) | 3 (Herbicidal ratio of 40% or more and less than 70%) | 1 (Herbicidal ratio of 5% or more and less than 20%) | 0 (Herbicidal ratio of 5% or less (almost no effect)) | – | – | – | – | – | – | – | – |
| O=C(Nc1nnco1)c1ccc(C(F)(F)F)n2c(SCc3ccc(Cl)nc3)nnc12 [1-157] | 1 (Herbicidal ratio of 5% or more and less than 20%) | 3 (Herbicidal ratio of 40% or more and less than 70%) | 1 (Herbicidal ratio of 5% or more and less than 20%) | 3 (Herbicidal ratio of 40% or more and less than 70%) | 5 (Herbicidal ratio of 90% or more (almost completely withered)) | 2 (Herbicidal ratio of 20% or more and less than 40%) | 1 (Herbicidal ratio of 5% or more and less than 20%) | 2 (Herbicidal ratio of 20% or more and less than 40%) | – | – | – | – | – | – | – | – |
| CSC(C)c1nnc2c(C(=O)Nc3nnnn3C)ccc(C(F)(F)F)n12 (centres unmarked) [2-052] | – | – | – | – | – | – | – | 5 (Herbicidal ratio of 90% or more (almost completely withered)) | – | – | – | – | – | – | – | L (Apera spica-venti.) herbicidal effect grade ([1]; foliage application, 320 g/ha): 5 (Herbicidal ratio of 90% or more (almost completely withered)); H (Echinochloa crus-galli var. crus-galli) herbicidal effect grade ([2]; foliage application, 320 g/ha): 5 (Herbicidal ratio of 90% or more (almost completely withered)); M (Abutilon theophrasti) herbicidal effect grade ([4]; foliage application, 320 g/ha): 5 (Herbicidal ratio of 90% or more (almost completely withered)); O (Chenopodium album) herbicidal effect grade ([5]; foliage application, 320 g/ha): 5 (Herbicidal ratio of 90% or more (almost completely withered)); I (Avena fatua) herbicidal effect grade ([7]; foliage application, 320 g/ha): 5 (Herbicidal ratio of 90% or more (almost completely withered)); b (effect on crop grade) [9]: 5 (Herbicidal ratio of 90% or more (almost completely withered)) |
| CCCn1nnnc1NC(=O)c1ccc(C(F)(F)F)n2c(C(C)C)nnc12 [2-090] | – | – | – | – | – | – | – | 4 (Herbicidal ratio of 70% or more and less than 90%) | 4 (Herbicidal ratio of 70% or more and less than 90%) | 5 (Herbicidal ratio of 90% or more (almost completely withered)) | 4 (Herbicidal ratio of 70% or more and less than 90%) | 3 (Herbicidal ratio of 40% or more and less than 70%) | 3 (Herbicidal ratio of 40% or more and less than 70%) | 4 (Herbicidal ratio of 70% or more and less than 90%) | – | – |
| C=CCn1nnnc1NC(=O)c1ccc(C(F)(F)F)n2c(C(C)C)nnc12 [2-091] | – | – | – | – | – | – | – | 0 (Herbicidal ratio of 5% or less (almost no effect)) | 3 (Herbicidal ratio of 40% or more and less than 70%) | 5 (Herbicidal ratio of 90% or more (almost completely withered)) | 4 (Herbicidal ratio of 70% or more and less than 90%) | 4 (Herbicidal ratio of 70% or more and less than 90%) | 4 (Herbicidal ratio of 70% or more and less than 90%) | 3 (Herbicidal ratio of 40% or more and less than 70%) | 5 (Herbicidal ratio of 90% or more (almost completely withered)) | – |
| CC(C)c1nnc2c(C(=O)Nc3nnnn3Cc3ccc(Cl)cc3)ccc(C(F)(F)F)n12 [2-093] | – | – | – | – | – | – | – | 2 (Herbicidal ratio of 20% or more and less than 40%) | 1 (Herbicidal ratio of 5% or more and less than 20%) | 1 (Herbicidal ratio of 5% or more and less than 20%) | 2 (Herbicidal ratio of 20% or more and less than 40%) | 3 (Herbicidal ratio of 40% or more and less than 70%) | 2 (Herbicidal ratio of 20% or more and less than 40%) | 1 (Herbicidal ratio of 5% or more and less than 20%) | 5 (Herbicidal ratio of 90% or more (almost completely withered)) | – |
| C#CCN(C)c1nnc2c(C(=O)Nc3nnnn3C)ccc(C(F)(F)F)n12 [2-094] | – | – | – | – | – | – | – | 4 (Herbicidal ratio of 70% or more and less than 90%) | 3 (Herbicidal ratio of 40% or more and less than 70%) | 5 (Herbicidal ratio of 90% or more (almost completely withered)) | 3 (Herbicidal ratio of 40% or more and less than 70%) | 5 (Herbicidal ratio of 90% or more (almost completely withered)) | 4 (Herbicidal ratio of 70% or more and less than 90%) | 2 (Herbicidal ratio of 20% or more and less than 40%) | 5 (Herbicidal ratio of 90% or more (almost completely withered)) | – |
| CN(CCC#N)c1nnc2c(C(=O)Nc3nnnn3C)ccc(C(F)(F)F)n12 [2-095] | – | – | – | – | – | – | – | 5 (Herbicidal ratio of 90% or more (almost completely withered)) | 5 (Herbicidal ratio of 90% or more (almost completely withered)) | 5 (Herbicidal ratio of 90% or more (almost completely withered)) | 4 (Herbicidal ratio of 70% or more and less than 90%) | 5 (Herbicidal ratio of 90% or more (almost completely withered)) | 4 (Herbicidal ratio of 70% or more and less than 90%) | 4 (Herbicidal ratio of 70% or more and less than 90%) | 5 (Herbicidal ratio of 90% or more (almost completely withered)) | – |
| Cc1nnc(NC(=O)c2ccc(C(F)(F)F)n3nc(C(C)C)nc23)o1 [7-001] | – | – | – | – | – | – | – | – | 0 (Herbicidal ratio of 5% or less (almost no effect)) | 1 (Herbicidal ratio of 5% or more and less than 20%) | 0 (Herbicidal ratio of 5% or less (almost no effect)) | 1 (Herbicidal ratio of 5% or more and less than 20%) | 0 (Herbicidal ratio of 5% or less (almost no effect)) | 0 (Herbicidal ratio of 5% or less (almost no effect)) | 2 (Herbicidal ratio of 20% or more and less than 40%) | a (transplanted Oryza sativa) effect on crop grade ([8]; application herbicide amount 320 g/ha): 0 (Herbicidal ratio of 5% or less (almost no effect)) |
